Source: patent US9290511B2, “Thieno-pyrimidines, useful as potassium channel inhibitors” (XENTION LIMITED, priority 2011, dated 2016)

Molecular target: T1, Kir3.1/3.4 (Rattus norvegicus, UniProt P48548+P63251)
T1 construct: expressed in transfected cells
T1 sequence (P63251 1-501): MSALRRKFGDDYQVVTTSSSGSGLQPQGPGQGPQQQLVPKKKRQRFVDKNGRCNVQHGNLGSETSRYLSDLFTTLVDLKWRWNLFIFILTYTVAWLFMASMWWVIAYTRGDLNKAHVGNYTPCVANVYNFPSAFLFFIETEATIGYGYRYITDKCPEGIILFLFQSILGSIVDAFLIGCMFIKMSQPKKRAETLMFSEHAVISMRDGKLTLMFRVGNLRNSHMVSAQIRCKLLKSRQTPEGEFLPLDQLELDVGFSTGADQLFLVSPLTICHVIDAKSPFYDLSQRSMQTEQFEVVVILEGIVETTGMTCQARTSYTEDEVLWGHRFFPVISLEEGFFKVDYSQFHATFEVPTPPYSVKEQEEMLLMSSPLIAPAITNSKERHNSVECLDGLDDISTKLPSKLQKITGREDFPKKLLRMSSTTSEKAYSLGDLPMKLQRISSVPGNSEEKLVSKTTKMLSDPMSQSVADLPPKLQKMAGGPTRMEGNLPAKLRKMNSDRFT
T1 sequence (P48548 1-419): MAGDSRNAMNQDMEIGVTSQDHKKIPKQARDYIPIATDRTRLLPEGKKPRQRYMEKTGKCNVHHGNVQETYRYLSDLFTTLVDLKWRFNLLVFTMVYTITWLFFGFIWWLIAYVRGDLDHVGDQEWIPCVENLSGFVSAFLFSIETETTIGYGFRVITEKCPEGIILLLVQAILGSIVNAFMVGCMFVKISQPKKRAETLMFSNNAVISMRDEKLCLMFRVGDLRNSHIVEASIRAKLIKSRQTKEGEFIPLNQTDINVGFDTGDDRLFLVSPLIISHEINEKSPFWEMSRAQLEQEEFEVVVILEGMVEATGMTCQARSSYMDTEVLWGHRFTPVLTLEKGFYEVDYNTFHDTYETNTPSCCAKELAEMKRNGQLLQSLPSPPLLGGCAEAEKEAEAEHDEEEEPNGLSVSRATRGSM
Experiment: Kir3.1/3.4 Electrophysiology Method (manual whole-cell patch clamp)
Type: cell-based
Conditions: Electrophysiology Method (TABLE 1)
How it was run: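 Percent inhibition is relative to the pre-drug current, both leak-subtracted using a potassium-free bather, taken as the mean current at −140 mV. The protocol was a step to +60 mV, a ramp to −140 mV, then a return to −60 mV holding, every 10 s. Cells were rat Kir3.1/3.4-transfected HEK293 recorded by whole-cell patch clamp.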

| Compound | IC50 |
| --- | --- |
| CN1CCC(N(C)CC2CCN(c3nc(N4CCCC(C(N)=O)C4)nc4scc(-c5ccccc5)c34)CC2)C1 (centres unmarked) [Example 238] | < 500 nM |
| CN1CCN(c2nc(N3CCC(CNC4CCC4)CC3)c3c(-c4ccccc4)csc3n2)CC1 [Example 116] | < 500 nM |
| CN(C)C(=O)c1sc2ncnc(N3C4CCC3CC(N(C)C3CCC3)C4)c2c1-c1ccccc1 (centres unmarked) [Example 347] | < 500 nM |
| CC(C)c1cc2c(N3CCC(COCCC4CCCCN4C)CC3)ncnc2s1 (centres unmarked) [Example 25, 6-isopropyl-4-[4-[2-(1-methyl-2-piperidyl)ethoxymethyl]-1-piperidyl]thieno[2,3-d]pyrimidine] | < 500 nM |
| c1ccc(-c2csc3ncnc(N4C5CCC4CC(N4CCC4)C5)c23)cc1 (centres unmarked) [Example 326] | < 500 nM |
| Fc1ccc(-c2csc3ncnc(N4CC5C(COCCN6CC[C@@H](F)C6)C5C4)c23)cc1 (some centres unmarked) [Example 278] | < 500 nM |
| c1ccc(-c2csc3ncnc(N4CCC(CNCCN5CCCC5)CC4)c23)cc1 [Example 206] | < 500 nM |
| c1ccc(-c2csc3ncnc(N4CCC(OCCN5CCCC5)CC4)c23)cc1 [Example 271] | < 500 nM |
| CN(CC(=O)N1CCCC1)CC1CCN(c2ncnc3scc(-c4ccccc4)c23)CC1 [Example 93, 2-[methyl-[[1-(5-phenylthieno[2,3-d]pyrimidin-4-yl)-4-piperidyl]methyl]amino]-1-pyrrolidin-1-yl-ethanone] | 500 to 3000 nM |
| CNC(=O)CN(CC1CCN(c2ncnc3scc(-c4ccccc4)c23)CC1)C1CCC1 [Example 252, 2-[cyclobutyl-[[1-(5-phenylthieno[2,3-d]pyrimidin-4-yl)-4-piperidyl]methyl]amino]-N-methyl-acetamide] | 500 to 3000 nM |
| N,N-dimethyl-5-phenyl-thieno[2,3-d]pyrimidine-6-carboxamide [Example 339] | < 500 nM |
| COc1ccccc1-c1csc2ncnc(N3C4CCC3CC(NC3CCC3)C4)c12 (centres unmarked) [Example 342] | < 500 nM |
| OC1CCN(CC2CCN(c3ncnc4scc(C5CCCCC5)c34)CC2)C1 (centres unmarked) [Example 200] | < 500 nM |
| COc1ccccc1-c1csc2ncnc(N3C4CCC3CC(N(C)C3CCC3)C4)c12 (centres unmarked) [Example 350] | < 500 nM |
| CC(C)(C)NC(C)(C)C#Cc1ncnc2scc(-c3ccccc3)c12 [Example 318] | < 500 nM |
| COc1cccc(-c2csc3ncnc(N4CCC(COCCN5CCCC5)CC4)c23)c1 [Example 312] | < 500 nM |
| CN1CCC(N(C)C2CCN(c3ncnc4scc(-c5ccccc5)c34)CC2)C1 (centres unmarked) [Example 231] | < 500 nM |
| CN1CCN(c2nc(N3CCC(CN(C)C4CCN(C)C4)CC3)c3c(-c4ccccc4)csc3n2)CC1 (centres unmarked) [Example 111] | < 500 nM |
| c1ccc(-c2csc3ncnc(N4C5CCC4CC(CN4CCCC4)C5)c23)cc1 (centres unmarked) [Example 335] | < 500 nM |

Now from value to compound:

| IC50 | Compound |
| --- | --- |
| < 500 nM | F[C@@H]1CCN(CCOCC2CCN(c3ncc4c(-c5ccccc5)csc4n3)CC2)C1 [Example 151] |
| < 500 nM | FC(F)(F)Oc1cccc(-c2csc3ncnc(N4CCC(COCCN5CCCC5)CC4)c23)c1 [Example 313] |
| 500 to 3000 nM | c1ccc(-c2csc3ncnc(N4CCC(N5CCCCC5)C4)c23)cc1 (centres unmarked) [Example 181, d]pyrimidine] |
| < 500 nM | CC(C)CC(=O)Nc1sc2nc(N3CCC(COCCN4CCCC4)CC3)ncc2c1-c1ccccc1 [Example 303] |
| 500 to 3000 nM | CN1CCC(N(C)C(=O)C2CCCN(c3ncnc4scc(-c5ccccc5)c34)C2)C1 (centres unmarked) [Example 282] |
| 500 to 3000 nM | O=C(NCCN1CCCC1)C1CCN(c2ncnc3scc(-c4ccccc4)c23)C1 (centres unmarked) [Example 270] |
| < 500 nM | CN(C)[C@@H]1CCN(CC2CCN(c3nc(N4CCC(C(N)=O)C4)nc4scc(-c5ccccc5)c34)CC2)C1 (some centres unmarked) [Example 236] |
| < 500 nM | c1nc(N2CCC(COCCN3CCCC3)CC2)c2c(-c3ccoc3)csc2n1 [Example 315] |
| < 500 nM | CN1CCC(NCC2CCN(c3ncnc4scc(-c5ccccc5)c34)CC2)CC1 [Example 97, 1-methyl-N-[[1-(5-phenylthieno[2,3-d]pyrimidin-4-yl)-4-piperidyl]methyl]piperidin-4-amine] |
| 500 to 3000 nM | N-(2-pyrrolidin-1-ylethyl)thieno[2,3-d]pyrimidin-2-amine [Example 108] |
| < 500 nM | CC(C)N(CCNCC1CCN(c2ncnc3scc(-c4ccccc4)c23)CC1)C(C)C [Example 62, N′,N′-diisopropyl-N-[[1-(5-phenylthieno[2,3-d]pyrimidin-4-yl)-4-piperidyl]methyl]ethane-1,2-diamine] |
| 500 to 3000 nM | c1ccc(COC2CCN(c3ncnc4scc(-c5ccccc5)c34)C2)cc1 (centres unmarked) [Example 178, d]pyrimidine] |
| < 500 nM | c1ccc(-c2csc3nc(N4CCC(COCCN5CCCC5)CC4)ncc23)cc1 [Example 148, 5-phenyl-2-[4-(2-pyrrolidin-1-ylethoxymethyl)-1-piperidyl]thieno[2,3-d]pyrimidine] |
| < 500 nM | c1ccc(-c2coc3ncnc(N4CCC(COCCN5CCCC5)CC4)c23)cc1 [Example 308, 5-phenyl-4-[4-(2-pyrrolidin-1-ylethoxymethyl)-1-piperidyl]furo[2,3-d]pyrimidine] |
| < 500 nM | CN1CCC(N(C)C(=O)C2CCN(c3ncnc4scc(-c5ccccc5)c34)CC2)C1 (centres unmarked) [Example 249] |
| < 500 nM | CC(C)(CNCC1CCN(c2ncnc3scc(-c4ccccc4)c23)CC1)N1CCOCC1 [Example 59, 2-methyl-2-morpholino-N-[[1-(5-phenylthieno[2,3-d]pyrimidin-4-yl)-4-piperidyl]methyl]propan-1-amine] |
| < 500 nM | COc1ccccc1-c1csc2nc(C3CC3)nc(N3CCC(COCCN4CCCC4)CC3)c12 [Example 358, 2-cyclopropyl-5-(2-methoxyphenyl)-4-[4-(2-pyrrolidin-1-ylethoxymethyl)-1-piperidyl]thieno[2,3-d]pyrimidine] |
| 500 to 3000 nM | c1ccc(-c2csc3ncnc(N4CCC(CN5CCC5)CC4)c23)cc1 [Example 73, 4-[4-(azetidin-1-ylmethyl)-1-piperidyl]-5-phenyl-thieno[2,3-d]pyrimidine] |
| < 500 nM | COCC1CCN(c2nc(N3CCC(CO)CC3)nc3scc(-c4ccccc4)c23)CC1 [Example 191] |
| < 500 nM | NC(=O)[C@H]1CCCN1CCN1CCN(c2ncc3c(-c4ccccc4)csc3n2)CC1 [Example 147] |
| 500 to 3000 nM | COCCNCC1CCN(c2nc(NCCN3CCCC3)nc3scc(-c4ccccc4)c23)CC1 [Example 109] |
| < 500 nM | c1ccc(-c2csc3ncnc(N4CCC(CN5CCC(N6CCCC6)C5)CC4)c23)cc1 (centres unmarked) [Example 76, 5-phenyl-4-[4-[(3-pyrrolidin-1-ylpyrrolidin-1-yl)methyl]-1-piperidyl]thieno[2,3-d]pyrimidine] |
| < 500 nM | c1ccc(-c2csc3ncnc(N4CCCC(OCCN5CCCC5)C4)c23)cc1 (centres unmarked) [Example 272] |
| < 500 nM | COCC1CCN(c2nc(N3CCN(C)CC3)nc3scc(-c4ccccc4)c23)CC1 [Example 174] |
| < 500 nM | CC(=O)N(C)C1CCN(CC2CCN(c3ncnc4scc(-c5ccccc5)c34)CC2)C1 (centres unmarked) [Example 248] |
| < 500 nM | CCN(CC)C(=O)C1CCCN(c2nc(N3CCC(CN(C)C4CCN(C)C4)CC3)c3c(-c4ccccc4)csc3n2)C1 (centres unmarked) [Example 228] |
| < 500 nM | COCCNc1nc(N2CCC(CN(C)C3CCN(C)C3)CC2)c2c(-c3ccccc3)csc2n1 (centres unmarked) [Example 118] |
| < 500 nM | CN1CCC(N(C)CC2CCN(c3nc(NCCN4CCCC4)nc4scc(-c5ccccc5)c34)CC2)C1 (centres unmarked) [Example 110] |
